Laboratory results from patent US12642783B2, “Method for treating vaso occlusive crises associated with Sickle cell disease” (Nicox SA, priority 2020, dated 2026).

Legend:
vaso-occlusive crises = conditions: sickle cell disease; cited from earlier work
blood pressure = conditions: 3 pivotal trials, 2,734 patients with osteoarthritis of the hip or knee; cited from earlier work
Nitrite = assay: Plasma nitrite levels after intravenous administration in Sickle Cell mouse model (thrombin challenge); type: in vivo; conditions: Homozygous Sickle Cell transgenic mice, 15 mg/kg intravenous, at one hour after thrombin (FIG. 1)
Protocol: (§1) This trial was conducted to assess the efficacy of 4-(nitrooxy)butyl-(2S)-2-(6-methoxy-2-naphthyl) propanoate (naproxcinod) to increase Nitrite (a precursor to NO), and cGMP in Homozygous Townes Sickle Cell transgenic mice.
(§2) Homozygous Sickle Cell transgenic mice were treated with either 4-(nitrooxy)butyl-(2S)-2-(6-methoxy-2-naphthyl) propanoate (naproxcinod) (15 mg/kg) or naproxen (15 mg/kg—as a control) or saline (as a vehicle control) by intravenous injection. After one hour, the mice were injected with thrombin (1 u/20 g) to induce platelet activation. Blood was drawn at […] after thrombin administration. Plasma nitrite levels were measured as a marker of nitric oxide bioavailability. cGMP levels were measured after addition of IBMX (3-Isobutyl-1-methylxanthine) (100 uM) to prevent cGMP degradation. Platelets were isolated and activation measured by surface expression of p-selectin.

[1] = tested on: osteoarthritis (OA) of the knee; conditions: human studies, OA of the knee patients; cited from earlier work
cGMP = cGMP levels after intravenous administration in Sickle Cell mouse model (thrombin challenge); type: in vivo, mice; conditions: for cGMP levels compared to thrombin alone or naproxen administration: Homozygous Sickle Cell transgenic mice, 15 mg/kg intravenous, p<0.01 (FIG. 2)
Protocol: as §1, §2

[2] = approved package insert (Novartis, 2019); cited from earlier work

NC(=O)NO [Droxia, hydroxyurea]
frequency of vaso-occlusive crises (vaso-occlusive crises): reduce the frequency

NC(=O)CC[C@H](N)C(=O)O [Endari, L-glutamine]
frequency of vaso-occlusive crises (vaso-occlusive crises): reduce the frequency

COc1ccc2cc([C@H](C)C(=O)OCCCCO[N+](=O)[O-])ccc2c1 [naproxcinod, 4-(nitrooxy)butyl-(2S)-2-(6-methoxy-2-naphthyl) propanoate]
hypertensive burden induced by most NSAIDs (blood pressure): reduce some of the hypertensive burden
nitrite concentration compared to thrombin alone or naproxen administration (Nitrite): statistically greater
management of the signs and symptoms of OA [1]: clinical efficacy and safety
cGMP levels compared to thrombin alone or naproxen administration (cGMP; at 30 minutes after thrombin): significantly increased
cGMP levels compared to thrombin alone or naproxen administration (cGMP; at 60 minutes after thrombin): significantly increased
cyclic guanosine monophosphate level (cGMP level) (cGMP; Sickle cell animal model, summary statement): able to increase

B1: crizanlizumab-tmca (antibody, chains of the INN, looked up, V domains shown)
VH: QVQLVQSGAEVKKPGASVKVSCKVSGYTFTSYDINWVRQAPGKGLEWMGWIYPGDGSIKYNEKFKGRVTMTVDKSTDTAYMELSSLRSEDTAVYYCARRGEYGNYEGAMDYWGQGTLVTVSS
VL: DIQMTQSPSSLSASVGDRVTITCKASQSVDYDGHSYMNWYQQKPGKAPKLLIYAASNLESGVPSRFSGSGSGTDFTLTISSLQPEDFATYYCQQSDENPLTFGGGTKVEIK
notes: FDA-approved drug for vaso-occlusive crises complication in sickle cell disease
incidence rate of arthralgia [2]: 18%
incidence rate of back pain [2]: 15%
frequency of vaso-occlusive crises (vaso-occlusive crises): reduce the frequency
